Assays:
Format in all cases: in vivo
[1] = blind taste panel: which coffee tasted less bitter; details: Coffee 2 = 0.5 grams of sodium gluconate added to a 200 g coffee; blind study, panel of 8 individuals; FIG. 1
Procedure: The ability of a BMA to reduce the bitterness of a coffee product was investigated. Specifically, varying amounts of a BMA according to aspects described herein was added to coffee samples. In a blind study, a panel of 8 individuals were asked to determine which coffee tasted less bitter. […] Coffee 2 had 0.5 grams of sodium gluconate added to a 200 g coffee.
In a blind study, a panel of 8 individuals were asked to determine which coffee tasted less bitter. […] Coffee 2 had 0.5 grams of sodium gluconate added to a 200 g coffee.

[2] = trained-panel taste test of caffeine solutions with and without sodium gluconate (dose response)
Procedure: The effect of sodium gluconate on bitterness as a dose response was investigated, In a blind study, six (6) trained panelists conducted a taste test with caffeine samples. […] Caffeine solutions with and without sodium gluconate were prepared on a w/v basis with deionized water. Products were dispensed into lidded soufflé cups with 3-digit codes and evaluated at 21° C. Products were evaluated in duplicate by 6 trained panelists for bitter taste amelioration following the study by Leksrisompong et al. (2012).

[3] = blind tasting of chocolate chip cookies baked with sugar substitutes, with and without sodium gluconate; details: ½ tsp of sodium gluconate for every cup of erythritol; 5 people, blind sampled
Excerpt: The level of sodium gluconate on bitterness reduction in baked goods was investigated. Using a commercially available recipe of chocolate chip cookies, a batch of cookies were baked and blind sampled. The batches were baked using the recipe (i) 2 sticks unsalted butter, at room temperature; (ii) 1 cup erythritol or 1 cup monk fruit sugar substitute or ½ cup stevia sugar substitute; (iii) for samples with sodium gluconate, ½ tsp of sodium gluconate was used for every cup of erythritol; (iv) 1¼ egg; (v) 1⅓ cup almond flour; (vi) 2 tsp vanilla extract; (vii) 1¼ tsp sea salt; (viii) ½ tsp baking powder; (ix) ¼ tsp baking soda; and (x) 1 bag Lily's Sweets Semi-Sweet Chocolate Chips or Milk Chocolate Baking Chips. […] Five (5) people were brought in to compare batches with and without sodium gluconate.

## O=C([O-])[C@H](O)[C@@H](O)[C@H](O)[C@H](O)CO.[Na+] [sodium gluconate]
[1]
  coffee sample chosen by the panel as less bitter: less bitter, smoother taste
[2]; caffeine solutions w/v in deionized water, 21° C., 6 trained panelists in duplicate, 0 to 15 point Spectrum intensity scale, FIG. 2
  bitterness reduction of caffeine samples: significant bitterness reduction
[2]; percent bitterness vs masking agent dose, FIG. 3
  nature of bitterness reduction as a function of masking agent dose: linear
[3]
  participants' preference between cookie batches with and without sodium gluconate: All 5 participants preferred
